Test results reported in patent US20090215650A1, “SUBSTRATES WITH STABLE SURFACE CHEMISTRY FOR BIOLOGICAL MEMBRANE ARRAYS AND METHOD FOR FABRICATING THEREOF” (priority 2002, published 2009).

Legend:
[1] = biological target: Neurotensin receptor subtype I (human, NTR1) (Homo sapiens, UniProt P30989); experiment: BT-NT binding to NTR1 arrays on coated glass slides, competition with unlabeled neurotensin; conditions: 2 nM BT-NT; for binding specificity of BT-NT: competition with 4 μM unlabeled neurotensin
Sequence of Neurotensin receptor subtype I (human, NTR1) (P30989 whole entry): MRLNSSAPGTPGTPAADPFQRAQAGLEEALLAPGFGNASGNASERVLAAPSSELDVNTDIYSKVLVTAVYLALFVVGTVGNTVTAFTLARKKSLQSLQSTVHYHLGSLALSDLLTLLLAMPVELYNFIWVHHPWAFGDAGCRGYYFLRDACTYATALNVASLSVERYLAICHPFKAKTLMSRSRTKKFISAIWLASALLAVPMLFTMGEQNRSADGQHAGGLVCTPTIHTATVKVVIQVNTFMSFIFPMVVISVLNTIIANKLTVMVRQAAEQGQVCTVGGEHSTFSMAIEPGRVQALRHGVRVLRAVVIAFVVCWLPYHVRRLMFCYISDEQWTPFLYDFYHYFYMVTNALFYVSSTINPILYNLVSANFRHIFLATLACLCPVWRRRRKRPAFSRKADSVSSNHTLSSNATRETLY
Protocol: Neurotensin receptor subtype I (human, NTR1) was purchased from Perkin Elmer Life Sciences (Boston, Mass.) and was received as a membrane associated suspension in a buffer. Printing was carried out using a quill-pin printer (Cartesian Technologies Model PS 5000) equipped with software for programmable aspiration and dispensing. After printing the arrays were incubated in a humid chamber at room temperature for one hour, and then used for ligand binding experiments. Two different binding solutions, 2 nM BT-NT in binding buffer in either the absence or presence of neurotensin, were used to examine the total binding of fluorescently labeled neurotensin (2 nM BT-NT), and the specific inhibition of the binding of BT-NT in the presence of 4 μM unlabeled neurotensin. The binding buffer contained 50 mM Tris-HCl, pH 7.4, 10 mM MgCl2, 1 mM EDTA, 0.1% BSA. The incubation time for binding was one hour. After incubation, the slides were rinsed, dried, and examined using a Genipix scanner.
Glass slides were coated by incubating the slide with a 3 ml solution containing 1 mg/ml polymer (poly-lysine, 46 kDa, or polyethyleneimine, 50 kDa) in 0.1×PBS buffer for 30 minutes at room temperature, followed by rinsing with water and drying under nitrogen. […] Using a Telechem quill pin CMP5, we fabricated GPCR arrays.
Neurotensin receptor subtype 1 (human, NTR1) was purchased from Perkin Elmer Life Sciences (Boston, Mass.) and was received as a membrane associated suspension in a buffer. Printing was carried out using a quill-pin printer (Cartesian Technologies Model PS 5000) equipped with software for programmable aspiration and dispensing. After printing the arrays were incubated in a humid chamber at room temperature for one hour, and then used for ligand binding experiments. […] After incubation, the slides were rinsed, dried, and imaged in a fluorescence scanner. […]

streptavidin = streptavidin (Streptomyces avidinii, UniProt P22629); experiment: Binding of cy3-streptavidin to biotin-x-DHPE lipid arrays in presence of BSA; conditions: BSA 0.01%-1%; DPPC/DMPC/2% biotin-x-DHPE arrays on GAPS slide
Sequence of streptavidin (P22629 25-183, species assumed): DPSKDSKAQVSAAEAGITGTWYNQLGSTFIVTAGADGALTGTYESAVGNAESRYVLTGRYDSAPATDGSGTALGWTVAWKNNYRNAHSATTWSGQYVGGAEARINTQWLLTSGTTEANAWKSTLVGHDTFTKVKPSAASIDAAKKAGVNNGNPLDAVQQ
Protocol: Seven 5×5 arrays of DPPC/DMPC/2% biotin-x-DHPE were printed onto a single Corning GAPS slide (data not shown). After incubation 3 sets of lipid arrays were pre-incubated with TR-BSA before the addition of Cy3-streptavidin. A second set of 3 arrays was incubated with TR-BSA together with cy3-streptavidin, while one array was covered with a solution of cy3-streptavidin. After 30 minutes the slides were rinsed, dried and imaged. The cy5 channel signal was used to monitor the adsorption of TR-BSA, and the cy3 channel signal was used to monitor the binding of cy3-streptavidin.

[2] = two reactive surfaces (epoxy silane, thiol-silane)

Substance	binding specificity of BT-NT ([1]; poly-lysine and polyethyleneimine surfaces (both))	binding specificity of BT-NT [1, 2]	total binding signal [1, 2]	effect on background level (streptavidin)	effect on binding specificity of cy3-streptavidin (streptavidin)
Bodipy-TMR-neurotensin [BT-NT]	~90%	75-90%	relatively low	–	–
bovine serum albumin [BSA]	–	–	–	reduces the background level in most cases	does not significantly decrease the binding specificity
